Measurements as given in publication PMC5382325, “Rapid Screening of Potential Phosphodiesterase Inhibitors from the Roots of Ilex pubescens Hook. et Arn. Using a Combination of Ultrafiltration and LC–MS” (Evidence-based Complementary and Alternative Medicine : eCAM, 2017).
Several values for one entry are separate records, joined by “and”; a condition that tells them apart may be missing. Equal values may be shown once. Read-outs that look alike come from different tables or passages of the source.

Assays:
[1] = target: T1, Phosphodiesterase I (PDEI) from Crotalus adamanteus venom (Crotalus adamanteus, UniProt J3SEZ3); type: binding
T1 sequence (J3SEZ3 24-851 limits assumed): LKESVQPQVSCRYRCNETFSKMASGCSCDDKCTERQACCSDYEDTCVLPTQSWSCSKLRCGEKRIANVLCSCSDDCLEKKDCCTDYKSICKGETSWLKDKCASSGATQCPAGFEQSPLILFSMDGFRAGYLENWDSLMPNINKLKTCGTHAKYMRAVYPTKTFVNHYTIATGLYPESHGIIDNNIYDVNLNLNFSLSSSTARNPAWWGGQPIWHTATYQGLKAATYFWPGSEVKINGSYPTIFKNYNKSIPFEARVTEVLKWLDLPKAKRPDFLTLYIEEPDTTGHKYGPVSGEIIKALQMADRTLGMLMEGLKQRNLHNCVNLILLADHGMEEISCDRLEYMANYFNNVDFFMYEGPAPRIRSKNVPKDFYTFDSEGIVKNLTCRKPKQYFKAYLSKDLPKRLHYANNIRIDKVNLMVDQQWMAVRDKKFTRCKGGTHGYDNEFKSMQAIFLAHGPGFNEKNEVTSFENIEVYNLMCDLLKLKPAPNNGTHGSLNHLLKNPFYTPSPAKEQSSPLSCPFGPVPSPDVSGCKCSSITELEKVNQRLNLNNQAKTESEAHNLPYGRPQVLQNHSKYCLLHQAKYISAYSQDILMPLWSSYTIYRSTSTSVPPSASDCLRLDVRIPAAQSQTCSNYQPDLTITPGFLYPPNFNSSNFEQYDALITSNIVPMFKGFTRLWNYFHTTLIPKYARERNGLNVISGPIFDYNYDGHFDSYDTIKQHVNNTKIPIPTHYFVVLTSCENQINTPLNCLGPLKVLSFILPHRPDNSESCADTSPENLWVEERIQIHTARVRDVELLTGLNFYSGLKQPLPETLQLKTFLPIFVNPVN

[2] = target: Recombinant human PDE5A (Homo sapiens, UniProt O76074); assay: PDE inhibition assay against PDE5A (Cyclic Nucleotide Phosphodiesterase Assay Kit, spectrophotometric); type: biochemical; conditions: in vitro; for IC50: read-out: Inhibitory activity (IC50) PDE5A
[3] = target: T1, Phosphodiesterase I (PDEI) from Crotalus adamanteus venom; type: biochemical; conditions: read-out: Inhibitory activity (IC50) PDEI

Row | Structure (SMILES) | Enhancement factor with PDEI ([1]; n = 3) | IC50 [2] | Binding to PDEI (in words) [1] | IC50 [3] | Enhancement factor with PDEI [1] | Activity against PDE5A (in words) [2]
1 | C[C@@H]1CC[C@]2(C(=O)O)CC[C@]3(C)C(=CCC4[C@@]5(C)CC[C@H](O)[C@](C)(C(=O)O)C5CC[C@]43C)C2[C@]1(C)O (some centres unmarked) [Ilexgenin A (11), Ilexgenin A] | 23.08 ± 0.44% and 30.82 ± 0.31% | 177 µM |  |  |  | 
2 | C[C@@H]1CC[C@]2(C(=O)OC3OC(CO)C(O)C(O)C3O)CC[C@]3(C)C(=CCC4[C@@]5(C)CC[C@H](O)[C@](C)(C(=O)O)C5CC[C@]43C)C2[C@]1(C)O (some centres unmarked) [Ilexsaponin A1(9), Ilexsaponin A1] | 11.68 ± 0.31% and 18.59 ± 0.65% | 22.4 µM | low binding efficiency |  |  | 
3 | C[C@H]1CC[C@]2(C(=O)O)CC[C@]3(C)C(=CC[C@@H]4[C@@]5(C)CC[C@H](O[C@@H]6OC[C@@H](O)[C@H](O)[C@H]6O[C@@H]6O[C@H](CO)[C@@H](O)[C@H](O)[C@H]6O)C(C)(C)[C@@H]5CC[C@]43C)[C@@H]2[C@]1(C)O [Ilexsaponin B1 (10), Ilexsaponin B1] |  | 1800 µM |  | 854 µM | 9.20 ± 0.62% and 15.54 ± 0.21% | 
4 | C[C@@H]1O[C@@H](O[C@H]2[C@H](O[C@H]3[C@H](O[C@H]4CC[C@]5(C)[C@H]6CC=C7[C@H]8[C@](C(=O)O)(CC[C@H](C)[C@@]8(C)O)CC[C@@]7(C)[C@]6(C)CC[C@H]5C4(C)C)OC[C@@H](O)[C@@H]3O)O[C@H](CO)[C@@H](O)[C@@H]2O)[C@H](O)[C@H](O)[C@H]1O [Ilexsaponin B2 (8), Ilexsaponin B2] |  | 48.8 µM | strongest PDEI ligand | 478 µM | 28.73 ± 0.55% and 41.85 ± 0.86% | 
5 | O=C(C=Cc1ccc(O)c(O)c1)OC1CC(O)(C(=O)O)CC(O)C1OC(=O)C=Cc1ccc(O)c(O)c1 (centres unmarked) [Isochlorogenic acid B (3), Isochlorogenic acid B] | 19.15 ± 0.77% and 25.90 ± 1.30% | 193 µM |  |  |  | 
6 | O=C(C=Cc1ccc(O)c(O)c1)OC1CC(O)(C(=O)O)CC(O)C1OC(=O)C=Cc1ccc(O)c(O)c1 (centres unmarked) [Isochlorogenic acid C (5), Isochlorogenic acid C] | 26.73 ± 0.41% and 40.03 ± 0.14% |  | quite strong bindings to PDEI |  |  | not active
